Test results reported in patent publication US5935954A, “Compounds with improved multi-drug resistance activity” (Vertex Pharmaceuticals Incorporated, priority 1997, dated 1999).
pIC50, pKi: −log10 of the molar value. Like-named read-outs stand apart in the source and are kept apart here.

How the values were obtained:
[1] = test system: L1210 mouse leukemia cells transformed with the pHaMDR1/A retrovirus carrying a MDR1 cDNA; test: cells; assay type: cell-based; settings: for MDR Ratio: IC50 Dox / IC50 Dox+Inhibitor, 2.5 μM compound; for pIC50: Mus musculus, doxorubicin alone
Description: To assay the ability of the compounds according to this invention to increase the antiproliferative activity of a drug, cell lines which are known to be resistant to a particular drug may be used. These cell lines include, but are not limited to, the L1210, P388D, CHO and MCF7 cell lines. Alternatively, resistant cell lines may be developed. The cell line is exposed to the drug to which it is resistant, or to the test compound; cell viability is then measured and compared to the viability of cells which are exposed to the drug in the presence of the test compound.
To carry out assays using L1210 mouse leukemia cells transformed with the pHaMDR1/A retrovirus carrying a MDR1 cDNA, we follow the procedure described by Pastan et al., Proc. Natl. Acad. Sci., Vol. 85, […] 4490 (1988). The resistant line, labelled L1210VMDRC.06, is obtained from Dr. M. M. Gottesman of the National Cancer Institute. Drug-resistant transfectants are selected by culturing cells in […] colchicine.
Multi-drug resistance assays are conducted by plating cells (2×10^3, 1×10^4, or 5×10^4 cells/well) in 96 well microtiter plates and exposing them to a concentration range of doxorubicin (50 nM-10 μM) in the presence or absence of multi-drug resistance modifier compounds ("MDR inhibitors") of this invention (1, 2.5 or 10 μM) as described in Ford et al., Cancer Res., Vol. 50, 1748-1756. (1990). After culture for 3 days, the viability of cells is quantitated using MTT (Mossman) or XTT dyes to assess mitochondrial function. Also see, Mossman T., J. Immunol. Methods, Vol. 65, 55-63 (1983).
Results are determined by comparison of the IC50 for doxorubicin alone to the IC50 for doxorubicin+MDR inhibitor. An MDR ratio is calculated (IC50 Dox/ IC50 Dox+Inhibitor) and the integer value used for comparison of compound potencies. […]

FKBP12 = FKBP12 (Homo sapiens, UniProt P62942); test: FKBP12 binding assay (inhibition of rotomase activity); assay type: biochemical; settings: apparent Ki
Source text: Preferably, the assay measures inhibition of FKBP12 rotomase activity. Such an assay has also been described by M. W. Harding et al., supra and by J. J. Siekierka et al., supra. In this assay the isomerization of an artificial substrate--N-succinyl-Ala-Ala-Pro-Phe-p-nitroanilide--is followed spectrophotometrically. The assay includes the cis form of the substrate, FKBP12, the inhibitor and chymotrypsin. Chymotrypsin is able to cleave p-nitroanilide from the trans form of the substrate, but not the cis form. Release of p-nitroanilide is measured.
The inhibition of FKBP rotomase activity by the preferred FKBP12 binding compounds present in the compositions of this invention was assayed. In this assay various quantities of FKBP12 binding compound (0nM-10 μM) were added to cis-N-succinyl-Ala-Ala-Pro-Phe-p-nitroanilide in the presence of FKBP12 and chymotrypsin. FKBP12 converts the cis form of the substrate to the trans form. This allows chymotrypsin to cleave p-nitroanilide from the substrate. Release of p-nitroanilide was measured spectrophotometrically. This assay allowed me to measure the change in the first order rate constant of the rotomase activity as a function of FKBP12 binding compound concentration and yielded an estimate of apparent Ki.

Sequence of FKBP12 (P62942 whole entry, species assumed): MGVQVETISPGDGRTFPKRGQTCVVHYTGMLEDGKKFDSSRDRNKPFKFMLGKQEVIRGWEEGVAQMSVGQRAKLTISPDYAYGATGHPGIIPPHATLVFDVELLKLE

Row | Structure (SMILES) | pKi (FKBP12) | pIC50 ([1]; L1210, read-out: IC50 DXR Alone, Date 4/21/95) | pIC50 ([1]; L1210, read-out: IC50 DXR Alone, Date 5/12/95) | MDR Ratio ([1]; Date 4/21/95) | MDR Ratio ([1]; Date 5/12/95)
1 | COc1cc(C(=O)C(=O)N2CCCC[C@H]2C(=O)O[C@H](CCCc2ccccc2)c2cncc(-c3c(OC)cccc3OC)c2)cc(OC)c1OC [Compound 24] | 9.30 |  |  |  | > 14.0
2 | CCC/C=C(/c1cccnc1)c1cccc([C@H](CCN2CCOCC2)OC(=O)[C@@H]2CCCCN2C(=O)C(=O)c2cc(OC)c(OC)c(OC)c2)c1 [Compound 27] | 6.59 |  |  |  | 12.7
3 | CCC/C=C(\c1cccnc1)c1cccc([C@@H](CCN2CCOCC2)OC(=O)[C@@H]2CCCCN2C(=O)C(=O)c2cc(OC)c(OC)c(OC)c2)c1 [Compound 30] | 7.57 |  |  |  | 14.0
4 | COCc1cccc(COC)c1-c1cncc([C@@H](OC(=O)[C@@H]2CCCCN2C(=O)C(=O)c2ccco2)/C(C)=C/[C@H]2CC[C@H](O)CC2)c1 [Compound 40] | 6.30 |  |  |  | 2.5
5 | CCOCc1cc2ccccc2n1-c1cccc([C@@H](OC(=O)[C@@H]2CCCCN2C(=O)C(=O)c2ccco2)/C(C)=C/[C@H]2CC[C@H](O)CC2)c1 [Compound 43] | 6.74 |  |  |  | 14.0
6 | CCOCc1cccc(COCC)c1-c1csc([C@H](CCN2CCOCC2)OC(=O)[C@@H]2CCCCN2C(=O)C(=O)C2CCOCC2)c1 [Compound 61] | < 5.00 |  |  |  | 2.5
7 | CCOCc1cccc(COCC)c1-c1cncc(C(CCN2CCOCC2)OC(=O)[C@@H]2CCCCN2C(=O)C(=O)C(C)(C)C(C)C)c1 (stereo partly shown) [Compound 89] | 6.58 |  |  |  | 5.0
8 | C=CCC/C=C(/c1cccnc1)c1ccc(C(CCN2CCOCC2)OC(=O)[C@@H]2CCCCN2C(=O)C(=O)C(C)(C)C(C)C)s1 (stereo partly shown) [Compound 90] | 8.05 |  |  |  | 7.4
9 | CCCc1ccc(CCC)n1-c1cccc([C@@H](CCN2CCOCC2)OC(=O)[C@@H]2CCCCN2C(=O)C(=O)[C@@H]2CCCC[C@H]2C)c1 [Compound 105] | 7.03 |  |  |  | 5.4
10 | CCCc1ccc(CCC)n1-c1cccc([C@@H](CCN2CCOCC2)OC(=O)[C@@H]2CCCCN2C(=O)C(=O)[C@@H]2C[C@H](C(C)(C)OC)CC=C2C)c1 [Compound 107] | 5.12 |  |  |  | 8.8
11 | CCCc1ccc(CCC)n1-c1cccc([C@@H](CCN2CCOCC2)OC(=O)[C@@H]2CCCCN2C(=O)C(=O)[C@@H]2C[C@H](OCC)CC[C@H]2C)c1 [Compound 111] | 6.10 |  |  |  | 9.3
12 | CCC/C(=C/COC)c1cncc([C@@H](CCN2CCOCC2)OC(=O)[C@@H]2CCCCN2C(=O)C(=O)C(C)(C)C(C)C)c1 [Compound 113] | 7.21 |  |  |  | 7.0
13 | CCC/C(=C/COC)c1cncc([C@@H](CCN2CCOCC2)OC(=O)[C@@H]2CCCCN2C(=O)C(=O)[C@@H]2C[C@H](C(C)(C)OC)CC[C@H]2C)c1 [Compound 123] | 5.55 |  |  | 12.4 | 
14 | CCC/C(=C/COC)c1cncc(C(CCN2CCOCC2)OC(=O)[C@@H]2CCCCN2C(=O)C(=O)[C@@H]2C[C@H](OCC)CC[C@H]2C)c1 (stereo partly shown) [Compound 125] | 5.96 |  |  |  | 
15 | CCCCc1ccc(C)n1-c1cccc([C@@H](CCN2CCOCC2)OC(=O)[C@@H]2CCCCN2C(=O)C(=O)[C@@H]2C[C@H](C(C)C)CC[C@H]2C)c1 [Compound 126] | 5.52 |  |  |  | 
16 | CCO[C@@H]1CC[C@@H](C)[C@H](C(=O)C(=O)N2CCCC[C@H]2C(=O)O[C@H](CCN2CCOCC2)c2cccc(-n3c(C)ccc3C)c2)C1 [Compound 127] | 7.72 |  |  |  | 
17 | CCC/C=C(\c1cncc([C@@H](CCN2CCOCC2)OC(=O)[C@@H]2CCCCN2C(=O)C(=O)[C@@H]2CCCC[C@H]2C)c1)C(C)C [Compound 128] | 7.39 |  |  |  | 
18 | CCC/C=C(\c1cncc([C@@H](CCN2CCOCC2)OC(=O)[C@@H]2CCCCN2C(=O)C(=O)[C@@H]2C[C@H](C(C)(C)OC)CC[C@H]2C)c1)C(C)C [Compound 129] | 5.92 |  |  |  | 
19 | CCC/C=C(\c1cncc([C@@H](CCN2CCOCC2)OC(=O)[C@@H]2CCCCN2C(=O)C(=O)[C@@H]2C[C@H](OCC)CC[C@H]2C)c1)C(C)C [Compound 130] | 6.31 |  |  |  | 
20 | CCC/C=C(\c1cncc([C@@H](CCN2CCOCC2)OC(=O)[C@@H]2CCCCN2C(=O)C(=O)[C@@H]2C[C@@H](OCC)CN2C(C)=O)c1)C(C)C [Compound 132] | < 5.00 |  |  |  | 

Further lines, with some results ahead:

Row | pKi (FKBP12) | pIC50 ([1]; L1210, read-out: IC50 DXR Alone, Date 4/21/95) | pIC50 ([1]; L1210, read-out: IC50 DXR Alone, Date 5/12/95) | Structure (SMILES) | MDR Ratio ([1]; Date 4/21/95) | MDR Ratio ([1]; Date 5/12/95)
21 | 7.51 |  |  | CCCOc1ccc(OCCC)c(-c2cncc([C@@H](CCCc3ccccc3)OC(=O)[C@@H]3CCCCN3C(=O)C(=O)c3cc(OC)c(OC)c(OC)c3)c2)c1 [Compound 22] | 12.4 | 1.3
22 | 8.62 |  |  | CCC/C=C(/c1cccnc1)c1cccc([C@@H](CCN2CCOCC2)OC(=O)[C@@H]2CCCCN2C(=O)C(=O)c2cc(OC)c(OC)c(OC)c2)c1 [Compound 26] |  | 8.8
23 | 7.70 |  |  | CC/C=C(/c1cccnc1)c1cccc([C@H](CCCc2ccccc2)OC(=O)[C@@H]2CCCCN2C(=O)C(=O)c2cc(OC)c(OC)c(OC)c2)c1 [Compound 28] |  | 10.0
24 | 8.01 |  |  | COc1cc(C(=O)C(=O)N2CCCC[C@H]2C(=O)O[C@H](/C(C)=C/[C@H]2CC[C@H](O)CC2)c2cncc(-c3c(OC)cccc3OC)c2)cc(OC)c1OC [Compound 32] |  | 11.7
25 | 6.70 |  |  | C=CCC/C=C(/c1cccnc1)c1ccc([C@@H](OC(=O)[C@@H]2CCCCN2C(=O)C(=O)C(C)(C)C)/C(C)=C/C2CCN(C)CC2)s1 [Compound 52] | 5.8 | 4.1
26 | 7.15 |  |  | COC/C=C(\c1cncc([C@@H](OC(=O)[C@@H]2CCCCN2C(=O)C(=O)CC(C)C)/C(C)=C/[C@H]2CC[C@H](O)CC2)c1)C1CCCCC1 [Compound 59] |  | 10.8
27 | 6.40 |  |  | CCOCc1cccc(COCC)c1-c1cncc([C@H](CCN2CCOCC2)OC(=O)[C@@H]2CCCCN2C(=O)C(=O)C2(C)CCCCC2)c1 [Compound 76] |  | 6.4
28 | 7.92 |  |  | CCOCc1cccc(COCC)c1-c1ccc([C@@H](CCN2CCOCC2)OC(=O)[C@@H]2CCCCN2C(=O)C(=O)C2(C)CCCCC2)s1 [Compound 79] |  | 7.8
29 | 8.10 |  |  | C=CCC/C=C(\c1ccc(C(CCN2CCOCC2)OC(=O)[C@@H]2CCCCN2C(=O)C(=O)C(C)(C)C(C)C)s1)C1CCOCC1 (stereo partly shown) [Compound 91] |  | 2.7
30 | 6.42 |  |  | CCC/C=C(\c1cncc(C(OC(=O)[C@@H]2CCCCN2C(=O)C(=O)C2(O)CCC(OC)CC2)/C(C)=C/c2ccncc2)c1)C1CCCCC1 (stereo partly shown) [Compound 100] |  | < 14.0
31 | 6.03 |  |  | CCCCc1ccc(C)n1-c1cccc([C@@H](CCN2CCOCC2)OC(=O)[C@@H]2CCCCN2C(=O)C(=O)[C@@H]2C[C@H](C(C)(C)OC)CC[C@H]2C)c1 [Compound 112] |  | 10.8
32 | 7.05 |  |  | CCC/C(=C/COC)c1cncc(C(OC(=O)[C@@H]2CCCCN2C(=O)C(=O)[C@@H]2CCCC[C@H]2C)/C(C)=C/C2CCOCC2)c1 (stereo partly shown) [Compound 131] |  | 
33 | 6.50 |  |  | CCC/C=C(/C)c1cncc([C@@H](CCN2CCOCC2)OC(=O)[C@@H]2CCCCN2C(=O)C(=O)[C@@H]2C[C@H](C(C)(C)OC)CC[C@H]2C)c1 [Compound 133] |  | 
34 |  | 5.68 | 6.15 | COc1cccc2c1C(=O)c1c(O)c3c(c(O)c1C2=O)C[C@@](O)(C(=O)CO)C[C@@H]3O[C@H]1C[C@H](N)[C@H](O)[C@H](C)O1 [DXR, doxorubicin, reference compound] |  | 
